Consider 12 molecules from patent publication EP0911330B1, “1-(4-Arylpiperazine-1-y1)-3-(2-oxopyrrolidin/piperidin-1-y1) propanes as therapeutic agents for hypertension, ischemia, cardiovascular and other adrenergic receptors related disorders” (Council of Scientific & Industrial Research, priority 1997, dated 1999).

Each structure is given as a SMILES string.

Assay [1] deals with cat. Description: Effect on blood pressure and adrenaline vasopressor response in anaesthetized cat, i.v. (Table 2). Particulars: for inhibition at 2 µmol/kg / inhibition in vivo at 2 µmol/kg / inhibition at 10 µmol/kg / inhibition in vivo at 10 µmol/kg: Felis catus, iv; for inhibition at 2 µmol/kg / inhibition at 10 µmol/kg: read-out: Adrenaline vasopressure response % inhibition; for inhibition in vivo at 2 µmol/kg / inhibition in vivo at 10 µmol/kg: read-out: B.P. fall %. It counts as in vivo. The protocol: • (a) Cats (2.6-4.0 kg) of either sex anaesthetized with pentobarbitone sodium (40 mg/kg i.v.) and showing basal mean arterial blood pressure below 150 mm (Hg) were categorised as normotensive and above 150 mm Hg as hypertensive. Arterial blood pressure (BP) was recorded from one of the carotid artery through a stathum P23 DC pressure transducer and 7P1 low level DC preamplifier on a Grass Model P7 Polygraph, Signals from 7P1 preamplifier were used to trigger 7P4 Tachograph preamplifier for recording the heart rate (HR). Right femoral vein and Trachea were cannulated for intravenous injections and artificial ventilation respectively. Control responses to intravenous injection of noradrenaline (2-4 ug); acetyl choline (1-2 ug); histamine ([…]) and isoprenaline (1-2 ug) were taken before and after the administration of test doses of each compounds.

Assay [2] relates to Langendorff perfused rat heart. Briefly: Antiischemic activity, Langendorff perfused rat heart, brief (16 min.) ischemic insult, compound given at reperfusion (Table 3). Particulars: 0.001 ug/ml at reperfusion. The method, then: Table 3: Compound administered at the time of reperfusion at a dose of 0.001 ug/ml on brief period (16 min.) of ischemic insult.
(§1) The rats were killed by decapitation, heart were rapidly excised and placed in ice-cold HEPES tyrode buffer. Then isolated hearts were perfused retrogradely through coronary arteries using the Langendorff technique. The perfusion buffer consisted (in mM) NaCl 137, KCl 5.4, CaCl2 1.8, MgCl2 1.0, glucose 11.2 and HEPES 3.0. The buffer (pH 7.4) was continuously gassed with oxygen and maintained at 37°C. Coronary flow rate was maintained at 10 ml/min. The heart contracted spontaneously.
(§2) The perfused heart was allowed to equilibrate for 30 min. before initiation of any insult protocol. The text compounds were given at the time of reperfusion. Some of the compounds were dissolved in ethanol. Final concentration of ethanol in the perfusion buffer was 0.0001% and had no effect of its own on the parameter used. • (a) For brief period of ischemic insult (Hideo et al.). Pathophysiology and pathogenesis of stunned myocardium. J. Clin. Invest., 79, 950-961, 1987). Ischemia was initiated by stopping the flow for 16 min. followed by 30 min. reperfusion period. The durations were decided on the initial pilot experiments leading to 50% recovery of function. • (b) For prolong period of ischemic insult (Becker, L.C. & Ambrosio, G. Myocardial consequences of reperfusion. Prog. Cardiovas. Dis., 30, 23-44, 1987). Ischemia was initiated by stopping the flow for […]. followed by 30 min. reperfusion.

The test system of assay [3] is Langendorff perfused rat heart preparation. Description: Cardioprotective activity, Langendorff perfused rat heart, prolonged ischemic insult, compound given at reperfusion. Conditions: 10^-6M, ischemic insult 45 min. The method, then: Further, in Langendorff perfused rat heart preparation subjected to even upto 90 min. global ischemia, the compound at 0.001 ug/ml conc. given at the time of reperfusion revived normal rhythmic contraction started within 2 min. (Table 1) and incidence of reperfusion induced arrhythmia were abolished. Table 1: Compound administered at the time of reperfusion at the dose of 0.001 ug/ml on prolong period (90 min.) of ischemic insult.
as §1, §2

The test system of assay [4] is cat. Briefly: Comparative antihypertensive effect with clinically used antihypertensive drugs in cat. It counts as in vivo. Conditions: 2 uMol/kg i.v.

Consider `O=C1CCCN1CCCN1CCN(c2cccc(Cl)c2)CC1` [C6H4-3-Cl, n=1, 1-[4-(3-chlorophenyl)piperazin-1-yl]-3-[2-oxopyrrolidin-1-yl]propane], for which, in the assay with cat [1] (dose 2.0 umol/kg i.v.), the inhibition (commonly the relative decrease from the control value, in per cent) at 2 µmol/kg was -20 to 0%; the inhibition in vivo at 2 µmol/kg is 25%; the Dur. is 20 min. In the assay with cat [1] (dose 10.0 umol/kg i.v.), this molecule had a Dur. above 57 min. The molecule also returned an Onset in assay [2] of 1.0 min.

Turning to `COC(=O)C1=C(C)NC(C)=C(C(=O)OC)C1c1ccccc1[N+](=O)[O-]` [Nifedipine, reference compound], the Onset in assay [3] is 2.5 min.

With `O=C1CCCCN1CCCN1CCN(c2cccc(C(F)(F)F)c2)CC1` [C6H4-3-CF3, n=2, 1-[4-(3-trifluoromethylphenyl)piperazin-1-yl]-3-[2-oxopiperidin-1-yl]propane], in the assay with cat [1] (dose 2.0 umol/kg i.v.), the inhibition at 2 µmol/kg was -20 to 0%. Moreover, in the assay on cat [1] (dose 10.0 umol/kg i.v.), the inhibition at 10 µmol/kg amounted to 25%, the inhibition in vivo at 10 µmol/kg was determined as 10% and the Dur. result is “Tr”.

Consider `C[C@H](CS)C(=O)N1CCC[C@H]1C(=O)O` [Captopril, reference compound], for which, in the assay with cat [4], the B.P. fall is on record as 14% and the Dur. is 28 min.

As for `CCc1ccc(N2CCN(CCCN3CCCC3=O)CC2)cc1` [C6H4-4-C2H5, n=1, 1-[4-(4-ethylphenyl)piperazin-1-yl]-3-[2-oxopyrrolidin-1-yl]propane], in the assay on cat [1] (dose 2.0 umol/kg i.v.), the inhibition in vivo at 2 µmol/kg was determined as 9% and the Dur. entry is reported as “Tr”. In the assay on cat [1] (dose 10.0 umol/kg i.v.), the inhibition in vivo at 10 µmol/kg came to 20% and the Dur. is 14 min. Also, the Onset in assay [2] stood at 2.0 min.

Regarding `O=C1CCCCN1CCCN1CCN(c2ccc(F)cc2)CC1` [C6H4-4-F, n=2, 1-[4-(4-fluorophenyl)piperazin-1-yl]-3-[2-oxopiperidin-1-yl] propane], in the assay on cat [1] (dose 2.0 umol/kg i.v.), the inhibition at 2 µmol/kg was found to be 46%, the inhibition in vivo at 2 µmol/kg worked out at 23% and the Dur. was found to be 40 min. For the same molecule, in the assay with cat [1] (dose 10.0 umol/kg i.v.), the inhibition at 10 µmol/kg is above 100%, the inhibition in vivo at 10 µmol/kg came to 33% and the Dur. is above 84 min.

On to `O=C1CCCN1CCCN1CCN(c2cccc(F)c2)CC1` [C6H4-3-F, n=1, 1-[4-(3-fluorophenyl)piperazin-1-yl]-3-[2-oxopyrrolidin-1-yl]propane], for which, in the assay on cat [1] (dose 2.0 umol/kg i.v.), the inhibition at 2 µmol/kg was 80%, the inhibition in vivo at 2 µmol/kg was found to be 18% and the Dur. turned out to be 3 min. For the same molecule, in the assay on cat [1] (dose 10.0 umol/kg i.v.), the inhibition at 10 µmol/kg is above 100%, the inhibition in vivo at 10 µmol/kg was found to be 32% and the Dur. amounted to 30 min. Also, the Onset in assay [2] was determined as 2.0 min.

As to `O=C1CCCCN1CCCN1CCN(c2ccc(Cl)cc2)CC1` [C6H4-4-Cl, n=2, 1-[4-(4-chlorophenyl)piperazin-1-yl]-3-[2-oxopiperidin-1-yl] propane], in the assay with cat [1] (dose 2.0 umol/kg i.v.), the inhibition at 2 µmol/kg is 20%, the inhibition in vivo at 2 µmol/kg is 24% and the Dur. was 20 min. Moreover, in the assay on cat [1] (dose 10.0 umol/kg i.v.), the inhibition at 10 µmol/kg was determined as 25%, the inhibition in vivo at 10 µmol/kg is 46% and the Dur. came to 25 min.

Regarding `O=C1CCCN1CCCN1CCN(c2ccc(Cl)cc2)CC1` [C6H4-4-Cl, n=1, 1-[4-(4-chlorophenyl)piperazin-1-yl]-3-[2-oxopyrrolidin-1-yl]propane], the Onset in assay [2] is 1.0 min.

Take `O=C1CCCCN1CCCN1CCN(c2ccccn2)CC1` [2-Pyridyl, n=2, 1-[4-(2-pyridyl)piperazin-1-yl]-3-[2-oxopiperidin-1-yl] propane]: in the assay with cat [1] (dose 2.0 umol/kg i.v.), the inhibition at 2 µmol/kg came to 28%, the inhibition in vivo at 2 µmol/kg came out at 34% and the Dur. was 53 min. Also, in the assay with cat [1] (dose 10.0 umol/kg i.v.), the inhibition at 10 µmol/kg is -20 to 0%, the inhibition in vivo at 10 µmol/kg turned out to be 42% and the Dur. was above 71 min. Moreover, in assay [2], the Onset turned out to be 2.0 min, the “Percentage recovery 15 min.” value is recorded as 47.60 Percentage and the “Percentage recovery 30 min.” value was 71.40 Percentage.

As to `CCc1ccccc1N1CCN(CCCN2CCCC2=O)CC1` [C6H4-2-C2H5, n=1, 1-[4-(2-ethylphenyl)piperazin-1-yl]-3-[2-oxopyrrolidin-1-yl] propane], in the assay with cat [1] (dose 2.0 umol/kg i.v.), the inhibition at 2 µmol/kg is -20 to 0%, the inhibition in vivo at 2 µmol/kg came out at 13% and the Dur. turned out to be 10 min. Besides, in the assay with cat [1] (dose 10.0 umol/kg i.v.), the inhibition in vivo at 10 µmol/kg came out at 62% and the Dur. came to 10 min. For the same molecule, the Onset in assay [2] stood at 3.0 min.

On to `O=C1CCCCN1CCCN1CCN(c2cccc(Cl)c2)CC1` [C6H4-3-Cl, n=2, 1-[4-(3-chlorophenyl)piperazin-1-yl]-3-[2-oxopiperidin-1-yl] propane], for which, in the assay with cat [1] (dose 2.0 umol/kg i.v.), the inhibition at 2 µmol/kg was 33%, the inhibition in vivo at 2 µmol/kg worked out at 27% and the Dur. was found to be 9 min. Moreover, in the assay with cat [1] (dose 10.0 umol/kg i.v.), the inhibition at 10 µmol/kg was determined as 10%, the inhibition in vivo at 10 µmol/kg was determined as 44% and the Dur. was found to be 62 min. Further, in assay [2], the Onset is 3.0 min, the “Percentage recovery 15 min.” value turned out to be 31.50 Percentage and the “Percentage recovery 30 min.” value is recorded as 39.40 Percentage.
